According to patent US10793561B2, “1,8-naphthyridinone compounds and uses thereof” (NUVATION BIO INC., priority 2017, dated 2020):

How the values were obtained:
adenosine A2A receptor [1] = biological target: T1, adenosine A2A receptor (Homo sapiens (Human), UniProt P29274); assay: cAMP assay in HEK-293 cells expressing human recombinant adenosine A2A receptor; assay type: cell-based; conditions: for inhibition at 0.3 µM / inhibition at 0.1 µM: HEK293; for inhibition at 0.3 µM: 300 nM compound, read-out: A2a cAMP % inh @ 300 nM; for inhibition at 0.1 µM: 100 nM compound, read-out: A2a cAMP % inh @ 100 nM
Procedure: The functional activity of compounds was tested using one of the two assays to detect the present of cAMP. Activation of G-protein coupled receptors (such as A2A) results in activation of adenylcyclase which converts ATP into cAMP which is used as a downstream signaling molecule. Therefore, molecules which act as GPCR (or specifically A2A receptor) antagonists cause a decrease in intracellular cAMP concentration.
Both assays used HEK-293 cells expressing human recombinant adenosine A2A receptor were grown prior to the test in media without antibiotic. Assay 1: The cells were detached by gentle flushing with PBS-EDTA (5 mM EDTA), recovered by centrifugation and suspended in assay buffer (KRH: 5 mM KCl, 1.25 mM MgSO4, 124 mM NaCl, 25 mM HEPES, 13.3 mM Glucose, 1.25 mM KH2PO4, 1.45 mM CaCl2, 0.5 g/L BSA, supplemented with Rolipram).
12 μL of cells were mixed with 6 μL of the test compound at increasing concentrations and then incubated for 10 min. Thereafter 6 μL of the reference agonist was added at a final concentration corresponding to the historical EC80. The plates were then incubated for 30 min at room temperature. After addition of the lysis buffer and 1 hour incubation, cAMP concentrations were estimated, according to the manufacturer specification, with the HTRF® kit.
Assay 2: 100 nL of test articles at 100× of final concentration were transferred to assay plate by Echo. Cells were washed twice with 5 mL of PBS […]. After aspirating the PBS and adding 1.5 mL versine, cells were incubated at 37° C. for 2-5 min. After centrifugation, 4 mL of medium was added and adjusted cell density to 5,000 cells/well with stimulation buffer. 10 μL of cells were aliquoted to the assay plate, centrifuged at 1000 rpm for 1 minute, and incubated for 60 minutes at room temperature. 5 μL 4× Eu-cAMP tracer solution and 5 μL 4× Ulight™-anti-cAMP solution were added to assay plate, followed by centrifugation and 60-minute incubation at room temperature. Plates were read on EnVision.

adenosine A2A receptor [2] = biological target: T1, adenosine A2A receptor; assay: Radioligand binding competition assay, adenosine A2A receptor; conditions: 3000 nM compound; for inhibition at 3 µM: read-out: A2a binding % inh @ 3000 nM
Procedure: Binding of selected compounds to the adenosine A1, A2A, A2B, and A3 receptors was tested using a binding competition assay.
The general protocol for the radioligand binding competition assay was as follows. Competition binding was performed in duplicate in the wells of a 96 well plate (Master Block, Greiner, 786201) containing binding buffer (optimized for each receptor), membrane extracts (amount of protein/well optimized for each receptor), radiotracer (final concentration optimized for each receptor), and test compound. Nonspecific binding was determined by co-incubation with 200-fold excess of cold competitor. The samples were incubated in a final volume of 0.1 mL at 25° C. for 60 minutes and then filtered over filter plates. Filters were washed six times with 0.5 mL of ice-cold washing buffer (optimized for each receptor) and 50 μL of Microscint 20 (Packard) were added on each filter. The filter plates were sealed, incubated 15 min on an orbital shaker and scintillation counted with a TopCount for 30 sec/filter.
For the adenosine A2A receptor radioligand binding assay, the following modifications were made to the general protocol. GF/C filters (Perkin Elmer, 6005174), presoaked in 0.01% Brij for 2 h at room temperature were used. Filters were washed six times with 0.5 mL of ice-cold washing buffer (50 mM Tris pH 7.4) and 50 μL of Microscint 20 (Packard) was added in each well. The plates were then incubated for 15 min on an orbital shaker and then counted with a TopCount™ for 1 min/well.
Another radioligand binding assay was used to evaluate the binding affinity for the adenosine A2A receptor assay was performed in duplicate in the wells of a 384 plate. Assay buffer contained DPBS 500 mM, MgCl2 0.1 mM, and 1% DMSO. Membrane-bead suspension was prepared by mixing 25.98 μL of human adenosine A2A membrane preparation (Perkin Elmer, RBHA2AM400UA) at 33.4 pg/mL, 28 μL of ADA at 20 pg/mL, and 932 μL of SPA beads at 3.33 mg/mL) and incubated the mixture for 20 min at room temperature. Mixed 20 μL of radiotracer (^3H-SCH 58261) at 15 nM to each well containing test articles at various concentrations and centrifuge the plate at 1000 rpm for 1 minute. Added 30 μL of the membrane-bead suspension to each well. Sealed the plates and incubated for 1 hr at room temperature with vigorous mixing on a plate mixer. Plates were read on Microbeta^2 (Perkin Elmer, 2450-0010).
CHO-K1-A3 cell membranes, 1.5 μg/well; a binding buffer comprising HEPES 25 mM pH 7.4, MgCl2 5 mM, CaCl2 1 mM, 0.5% BSA; a wash buffer comprising HEPES 25 mM pH 7.4, MgCl2 5 mM, CaCl2 1 mM; a Unifilter GF/C—treated for 2 h with 0.5% BS; and 0.4 nM of ^125I-AB-MECA as the tracer. The results of the binding assay are shown in Table B1-1 and are shown as percent residual binding at a given concentration. Percent of residual binding means binding of a compound in the presence of competitor normalized to the amount of binding in the absence of competitor. […] For example, compound 1 strongly bound to A2A (30% residual binding at a concentration of 100 nM), A1 (−3% residual binding at 300 nM) and A2B, (−9% residual binding at 300 nM) but weakly bound to A3 (96% residual binding at 300 nM).

T1 sequence (P29274 whole entry): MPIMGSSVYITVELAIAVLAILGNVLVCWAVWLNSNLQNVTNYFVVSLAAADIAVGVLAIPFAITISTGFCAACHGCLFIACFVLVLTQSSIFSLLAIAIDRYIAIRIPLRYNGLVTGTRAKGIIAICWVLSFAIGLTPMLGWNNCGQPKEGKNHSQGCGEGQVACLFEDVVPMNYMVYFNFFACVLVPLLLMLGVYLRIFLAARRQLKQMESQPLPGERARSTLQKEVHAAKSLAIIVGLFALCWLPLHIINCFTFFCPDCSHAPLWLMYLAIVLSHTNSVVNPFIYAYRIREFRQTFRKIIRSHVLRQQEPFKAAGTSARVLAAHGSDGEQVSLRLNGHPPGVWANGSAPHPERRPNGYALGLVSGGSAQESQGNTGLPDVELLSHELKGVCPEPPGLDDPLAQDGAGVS

| SMILES | inhibition at 3 µM (adenosine A2A receptor [2]) [%] | A2A radioligand binding competition assay % residual binding @ 3000 nM (adenosine A2A receptor [2]) | inhibition at 0.1 µM (adenosine A2A receptor [1]) [%] | other results |
| --- | --- | --- | --- | --- |
| Cc1ccc(-c2nc3[nH]ccc(=O)c3cc2-c2ccc3ncccc3c2)o1 [Compound No. 1.25, 7-(5-methylfuran-2-yl)-6-(quinolin-6-yl)-1,8-naphthyridin-4(1H)-one] | – | 0/ND/ND/ND % | – | IC50 (adenosine A2A receptor [1]; first cAMP table): 18.8 nM |
| Cc1cc(-c2cc3ccc(=O)[nH]c3nc2-c2ccccc2)cc(C)n1 [Compound No. 1.33, 6-(2,6-dimethylpyridin-4-yl)-7-phenyl-1,8-naphthyridin-2(1H)-one] | 30 | – | – | inhibition at 0.3 µM (adenosine A2A receptor [1]): 60% |
| O=c1cc[nH]c2nc(-c3ccncc3)c(-c3ccc4ncccc4c3)cc12 [Compound No. 1.18, 7-(pyridin-4-yl)-6-(quinolin-6-yl)-1,8-naphthyridin-4(1H)-one] | – | 38/ND/ND/ND % | 61 | – |
| O=c1ccc2cc(-c3ccc4[nH]cnc4c3)c(-c3ccccc3)nc2[nH]1 [Compound No. 1.6, 6-(1H-benzo[d]imidazol-5-yl)-7-phenyl-1,8-naphthyridin-2(1H)-one] | – | 57/ND/ND/ND % | 43 | – |
| Cc1cc(-c2cc3c(=O)cc[nH]c3nc2-c2ccccc2)cc2cccnc12 [Compound No. 1.23, 6-(8-methylquinolin-6-yl)-7-phenyl-1,8-naphthyridin-4(1H)-one] | – | 22/ND/ND/ND % | 77 | – |
| O=c1cc[nH]c2nc(-c3ccccc3)c(-c3ccc4ccccc4c3)cc12 [Compound No. 1.16, 6-(naphthalen-2-yl)-7-phenyl-1,8-naphthyridin-4(1H)-one] | – | 76/ND/ND/ND % | 23 | – |
| Cc1cc(-c2cc3c(=O)cc[nH]c3nc2-c2ccccc2)cc(C)n1 [1.3, 6-(2,6-dimethylpyridin-4-yl)-7-phenyl-1,8-naphthyridin-4(1H)-one] | – | 50/ND/ND/ND % | 50 | – |
| Cn1ccc(=O)c2cc(-c3ccc4ncccc4c3)c(-c3ccccc3)nc21 [Compound No. 1.8, 1-methyl-7-phenyl-6-(quinolin-6-yl)-1,8-naphthyridin-4(1H)-one] | – | 106/ND/ND/ND % | 0 | – |

More lines, main results first:

| inhibition at 3 µM (adenosine A2A receptor [2]) [%] | A2A radioligand binding competition assay % residual binding @ 3000 nM (adenosine A2A receptor [2]) | inhibition at 0.1 µM (adenosine A2A receptor [1]) [%] | SMILES | other results |
| --- | --- | --- | --- | --- |
| 0 | – | – | Cc1cc(Cl)cc(-c2cc3ccc(=O)[nH]c3nc2-c2ccccc2)c1 [Compound No. 1.35, 6-(3-chloro-5-methylphenyl)-7-phenyl-1,8-naphthyridin-2(1H)-one] | inhibition at 0.3 µM (adenosine A2A receptor [1]): 12% |
| 77 | – | – | O=c1cc[nH]c2nc(-c3ccccc3)c(-c3ccc4[nH]ncc4c3)cc12 [Compound No. 1.102, 6-(3a,7a-dihydro-1H-indazol-5-yl)-7-phenyl-1,8-naphthyridin-4(1H)-one] | IC50 (adenosine A2A receptor [1]; second cAMP table): 292 nM |
| 85 | – | – | Cc1ccc(-c2nc3[nH]ccc(=O)c3cc2-c2ccc3ncsc3c2)o1 [Compound No. 1.98, 6-(benzo[d]thiazol-6-yl)-7-(5-methylfuran-2-yl)-1,8-naphthyridin-4(1H)-one] | IC50 (adenosine A2A receptor [1]; second cAMP table): 17.2 nM |
| 72 | – | – | O=c1cc[nH]c2nc(-c3ccccc3)c(-c3ccc4ncncc4c3)cc12 [Compound No. 1.101] | IC50 (adenosine A2A receptor [1]; second cAMP table): 182 nM |
| – | 29/ND/ND/ND % | – | O=c1cc[nH]c2nc(-c3ccccc3)c(-c3cc(Cl)c4ncccc4c3)cc12 [Compound No. 1.13, 6-(8-chloroquinolin-6-yl)-7-phenyl-1,8-naphthyridin-4(1H)-one] | IC50 (adenosine A2A receptor [1]; first cAMP table): 47.7 nM |
| – | 69/ND/ND/ND % | 30 | Cn1cnc2cc(-c3cc4c(=O)cc[nH]c4nc3-c3ccccc3)ccc21 [Compound No. 1.22, 6-(1-methyl-1H-benzo[d]imidazol-5-yl)-7-phenyl-1,8-naphthyridin-4(1H)-one] | – |
| – | 45/ND/ND/ND % | 54 | O=c1cc[nH]c2nc(-c3ccccc3)c(-c3ccc4nccnc4c3)cc12 [Compound No. 1.15, 7-phenyl-6-(quinoxalin-6-yl)-1,8-naphthyridin-4(1H)-one] | – |
